Measured values published in patent US10519115B2, “Antidiabetic tricyclic compounds” (Merck Sharp & Dohme Corp., priority 2013, dated 2019).

Key:
Type in all cases: cell-based
Human GPR40 [1] = biological target: T1, Human GPR40 (Homo sapiens, UniProt O14842); assay: Inositol Phosphate Turnover (IP1) Assay 2 (HEK cells stably expressing human GPR40, CisBio IP-One kit); parameters: expressed in transfected cells; host or cells: HEK cells stably expressing the aequorin reporter; settings: HEK cells stably expressing human GPR40, 384-well
T1 sequence (O14842 whole entry): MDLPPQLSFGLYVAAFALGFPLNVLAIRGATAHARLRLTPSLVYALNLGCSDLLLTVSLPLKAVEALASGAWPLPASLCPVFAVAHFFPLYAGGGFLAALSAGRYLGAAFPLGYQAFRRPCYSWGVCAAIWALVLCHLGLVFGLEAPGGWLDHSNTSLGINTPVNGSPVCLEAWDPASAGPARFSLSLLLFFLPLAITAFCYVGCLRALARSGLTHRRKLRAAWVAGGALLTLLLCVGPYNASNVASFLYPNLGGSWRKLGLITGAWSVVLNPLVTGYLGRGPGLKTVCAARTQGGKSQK
Experimental: (§1) Human and mouse GPR40 stable cell-lines were generated in CHO cells stably expressing NFAT BLA (Beta-lactamase). A human GPR40 stable cell-line was generated in HEK cells stably expressing the aequorin expressing reporter. The expression plasmids were transfected using lipofectamine (Life Technologies) following manufacturer's instructions. Stable cell-lines were generated following drug selection.
The assay was performed in 384-well format. HEK cells stably expressing human GPR40 were plated at 15,000 cells per well in growth medium (DMEM/10% fetal calf serum). Cell plates were then incubated 16 hours at 37 degrees in a 5% CO2 incubator.
Measurement of Inositol Phosphate Turnover (IP1) was performed using the CisBio IP-One kit (Part number 62IPAPEB). After the 16 hour incubation, the cells were washed with HEPES buffer and 10 ul of stimulation buffer (prepared as described in the kit) was added to each well. In a separate plate, compounds were diluted in DMSO (400-fold over the final concentration in the assay well) and 25 nl was acoustically transferred to the appropriate well in the assay cell plate. The plates were then incubated for 60 minutes at 37 degrees. 10 ul of detection buffer (also prepared as described in the IP-One kit) was added to each well and the plates were incubated for 60 minutes in the dark. The plates were then read in a Perkin Elmer EnVision or equivalent reader able to measure FRET. Fluorescent ratio of emission at 665 and 620 nm was then converted to IP1 concentration by back calculating from an IP1 standard curve prepared at the time of the assay.

Human GPR40 [2] = biological target: T1, Human GPR40; assay: FLIPR assay (agonist-induced calcium mobilization, GPR40/CHO NFAT BLA cells); parameters: expressed in transfected cells
Experimental: as §1
FLIPR (Fluorimetric Imaging Plate Reader, Molecular Devices) assays were performed to measure agonist-induced calcium mobilization of the stable clones. For the FLIPR assay, one day before assay, GPR40/CHO NFAT BLA cells were seeded into black-wall-clear-bottom 384-well plates (Costar) at 1.4×10e4 cells/20 μL medium/well. The cells were incubated with 20 μl/well of the assay buffer (HBSS, 0.1% BSA, 20 mM HEPES, 2.5 mM probenecid, pH 7.4) containing 8 μM fluo-4, AM, 0.08% pluronic acid at room temperature for 100 minutes. Fluorescence output was measured using FLIPR. Compounds were dissolved in DMSO and diluted to desired concentrations with assay buffer. 13.3 μL/well of compound solution was added.

Human GPR40 [3] = biological target: T1, Human GPR40; assay: Inositol Phosphate Turnover Assay 1 (HEK cells stably expressing human GPR40); parameters: expressed in transfected cells; host or cells: HEK cells stably expressing the aequorin reporter; settings: HEK cells stably expressing human GPR40, 96-well, 3H-inositol; read-out: Human GPR40 IP1 Assay 1, EC50
Experimental: as §1
The assay was performed in 96-well format. HEK cells stably expressing human GPR40 were plated to be 60-80% confluent within 72 h. After 72 h, the plates were aspirated and the cells washed with inositol-free DMEM (ICN). The wash media was replaced with 150 μL of 3H-inositol labeling media (inositol-free media containing 0.4% human albumin or 0.4% mouse albumin, 1× pen/strep antibiotics, glutamine, 25 mM HEPES to which was added 3H-myo-inositol NEN #NET114A 1 mCi/mL, 25 Ci/mmol diluted 1:150 in loading media with a final specific radioactivity of 1 μCi/150 μL). Alternatively, the human and mouse albumin can be added after the overnight labeling step before the addition of LiCl.
The assay was typically run the next day after 18 h labeling. On the day of the assay, 5 μL of 300 mM LiCl was added to all wells and incubated at 37 degrees for 20 min. 0.75 μL of 200× compounds were added and incubated with the cells for 60 min at 37 degrees. The media was then aspirated off and the assay terminated with the addition of 60 μL 10 mM formic acid. The cells were lysed for 60 min at room temperature. 15-30 μL of lysate was mixed with 70 μL/1 mg YSi SPA beads (Amersham) in clear bottom Isoplates. The plates were shaken for 2 h at room temperature. Beads were allowed to settle and the plates were counted in the Wallac Microbeta.

EC50 (Human GPR40 [1]) [nM]	EC50 (Human GPR40 [2]) [nM]	EC50 (Human GPR40 [3]) [nM]	SMILES
–	7	11	C[C@]1(O)C[C@@H](COc2ccc(-c3cc(COc4cc5c(cn4)[C@H]4[C@@H](C5)[C@@H]4C(=O)O)c(F)cc3C(F)(F)F)cc2F)C1 [Compound-1, (5aR,6S,6aS)-3-{[3′,4-difluoro-4′-(((1s,3s)-3-hydroxy-3-methylcyclobutyl)methoxy)-6-(trifluoromethyl)-[1,1′-biphenyl]-3-yl]methoxy}-5,5a,6,6a-tetrahydrocyclopropa[4,5]cyclopenta[1,2-c]pyridine-6-carboxylic acid]
–	–	2.9	CS(=O)(=O)c1ccc(-c2ccc(-c3cc(COc4cc5c(cn4)[C@H]4[C@@H](C5)[C@@H]4C(=O)O)c(F)cc3C(F)(F)F)cc2)cc1 [Compound-10, (5aR,6S,6aS)-3-((4-fluoro-4″-(methylsulfonyl)-6-(tri-fluoromethyl)-[1,1′;4′,1″- terphenyl]-3-yl)methoxy)-5,5a,6,6a-tetrahydrocyclo-propa[4,5]cyclpenta [1,2-c]pyridine-6-carboxylic acid]
1.2	–	6.3	Cc1nc(OC[C@H]2C[C@@](C)(O)C2)ccc1-c1cc(COc2cc3c(cn2)[C@H]2[C@@H](C3)[C@@H]2C(=O)O)c(F)cc1C(F)(F)F [Compound-14, (5 aR,6S,6aS)-3-((2-fluoro-5-(6-(((1s,3s)-3-hydroxy-3-methylcyclobutyl)methoxy)-2-methylpyridin-3-yl)-4-(trifluoromethyl)benzyl)oxy)-5,5a,6,6a-tetrahydrocyclopropa-[4,5]cyclopenta[1,2-c]pyridine-6-carboxylic acid]
1.2	–	6.7	Cc1cc(O[C@H]2C[C@H](S(C)(=O)=O)C2)cc(C)c1-c1cc(COc2cc3c(cn2)[C@H]2[C@@H](C3)[C@@H]2C(=O)O)c(F)cc1F [Compound-15]
1	–	7.6	Cc1nc(N2Cc3cn(CC(C)(C)O)nc3C2)ccc1-c1cc(COc2cc3c(cn2)[C@H]2[C@@H](C3)[C@@H]2C(=O)O)c(F)cc1C(F)(F)F [Compound-18, (5aR,6S,6aS)-3-((2-fluoro-5-(6-(2-(2-hydroxy-2-methylpropyl)pyrrolo[3,4-c]pyrazol-5(2H,4H,6H)-yl)-2-methylpyridin-3-yl)-4-(trifluoromethyl)benzyl)oxy)-5,5a,6,6a-tetrahydrocyclopropa[4,5]cyclopenta[1,2-c]pyridine-6-carboxylic acid]
2.1	–	–	Cc1nc(OC2CC(S(C)(=O)=O)C2)ccc1-c1cc(COc2cc3c(cn2)[C@H]2[C@@H](C3)[C@@H]2C(=O)O)c(F)cc1C(F)(F)F (stereo partly shown) [Compound-19]

Continued, compound first:

SMILES	EC50 (Human GPR40 [1]) [nM]	EC50 (Human GPR40 [2]) [nM]	EC50 (Human GPR40 [3]) [nM]
Cc1cc(OC2CC(C(C)(O)CO)C2)cc(C)c1-c1cc(COc2cc3c(cn2)C2C(C3)C2C(=O)O)c(F)cc1F (single isomer, unassigned) [Compound-21]	1	–	–
Cc1cc(OC2CC(C(C)(O)CO)C2)cc(C)c1-c1cc(COc2cc3c(cn2)C2C(C3)C2C(=O)O)c(F)cc1F (single isomer, unassigned) [Compound-22]	0.7	–	–
O=C(O)[C@H]1[C@@H]2Cc3cc(OCc4cc(-c5ccc(OC[C@H]6C[C@@](O)(CO)C6)cc5Cl)c(F)cc4F)ncc3[C@@H]21 (single isomer, unassigned) [Compound-23]	1	–	–
O=C(O)[C@H]1[C@@H]2Cc3cc(OCc4cc(-c5ccc(OC[C@H]6C[C@](O)(CO)C6)cc5Cl)c(F)cc4F)ncc3[C@@H]21 (single isomer, unassigned) [Compound-24]	1.3	–	–
Cc1cc(OC[C@H]2C[C@@](O)(CO)C2)cc(C)c1-c1cc(COc2cc3c(cn2)[C@H]2[C@@H](C3)[C@@H]2C(=O)O)c(F)cc1F (single isomer, unassigned) [Compound-25]	1.9	–	–
Cc1cc(OC[C@H]2C[C@](O)(CO)C2)cc(C)c1-c1cc(COc2cc3c(cn2)[C@H]2[C@@H](C3)[C@@H]2C(=O)O)c(F)cc1F (single isomer, unassigned) [Compound-26]	1.6	–	–
C[C@]1(O)C[C@@H](COc2c(F)cc(-c3cc(COc4cc5c(cn4)[C@H]4[C@@H](C5)[C@@H]4C(=O)O)c(F)cc3C(F)(F)F)cc2F)C1 [Compound-2, (5aR,6S,6aS)-3-{[3′,4,5′-trifluoro-4′-(((1s,3s)-3-hydroxy-3-methylcyclobutyl)methoxy)-6-(trifluoromethyl)-[1,1′-biphenyl]-3-yl]methoxy}-5,5a,6,6a-tetrahydrocyclopropa[4,5]cyclopenta[1,2-c]pyridine-6-carboxylic acid]	–	5.8	6.9
C[C@]1(O)CC[C@H](Oc2c(F)cc(-c3cc(COc4cc5c(cn4)[C@H]4[C@@H](C5)[C@@H]4C(=O)O)c(F)cc3C(F)(F)F)cc2F)CC1 [Compound-3, (5aR,6S,6aS)-3-{[3′,4,5′-trifluoro-4′-(((1r,4r)-4-hydroxy-4-methylcyclohexyl)oxy)-6-(trifluoromethyl)-[1,1′-biphenyl]-3-yl]methoxy}-5,5a,6,6a-tetrahydrocyclopropa[4,5]cyclopenta[1,2-c]pyridine-6-carboxylic acid]	–	3.7	14
N#Cc1ccc(-c2ccc(-c3cc(COc4cc5c(cn4)[C@H]4[C@@H](C5)[C@@H]4C(=O)O)c(F)cc3C(F)(F)F)cc2)cc1 [Compound-9, (5aR,6S,6aS)-3-((4″-cyano-4-fluoro-6-(trifluoromethyl)-[1,1′:4′,1″-terphenyl]-3-yl)methoxy)-5,5a,6,6a-tetrahydrocyclopropa[4,5] cyclopenta[1,2-c]pyridine-6-carboxylic acid]	–	–	8.9
Cc1cc(-c2nnn(CC(C)(C)O)n2)cc(C)c1-c1cc(COc2cc3c(cn2)[C@H]2[C@@H](C3)[C@@H]2C(=O)O)c(F)cc1F [Compound-16, (5aR,6S,6aS)-3-((4,6-difluoro-4′-(2-(2-hydroxy-2-methylpropyl)-2H-tetrazol-5-yl)-2′,6′-dimethyl-[1,1′-biphenyl]-3-yl)methoxy)-5,5a,6,6a-tetrahydrocyclopropa[4,5]cyclopenta[1,2-c]pyridine-6-carboxylic acid]	1	–	9.4
Cc1cc(-c2ncn(CC(C)(C)O)n2)cc(C)c1-c1cc(COc2cc3c(cn2)[C@H]2[C@@H](C3)[C@@H]2C(=O)O)c(F)cc1F [Compound-17, (5aR,6S,6aS)-3-((4,6-difluoro-4′-(1-(2-hydroxy-2-methylpropyl)-1H-1,2,4-triazol-3-yl)-2′,6′-dimethyl-[1,1′-biphenyl]-3-yl)methoxy)-5,5a,6,6a-tetrahydrocyclopropa[4,5]cyclopenta[1,2-c]pyridine-6-carboxylic acid]	0.8	–	–
Cc1cc(OC[C@H]2C[C@](C)(O)[C@](C)(O)C2)cc(C)c1-c1cc(COc2cc3c(cn2)[C@H]2[C@@H](C3)[C@@H]2C(=O)O)c(F)cc1F [Compound-20, (5aR,6S,6aS)-3-((4′-(((1s,3R,4S)-3,4-dihydroxy-3,4-dimethylcyclopentyl)methoxy)-4,6-difluoro-2′,6′-dimethyl-[1,1′-biphenyl]-3-yl)methoxy)-5,5a,6,6a-tetrahydrocyclopropa-[4,5]cyclopenta[1,2-c]pyridine-6-carboxylic acid]	3.1	–	–
